Results from ChEMBL document CHEMBL1201862, “PubChem BioAssay data set” (2004).
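Following 48 hours of exposure in 96-well plates, responses at five concentrations were used to interpolate endpoints linearly. Here, GI50 denotes the concentration required for 50% inhibition of growth.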 The source made the active and inactive calls. No stated cut-off is given here; in the data, active = GI50 up to about 1.1 µM and inactive = higher.

What was measured:
Assay in all cases: NCI tumour cell line growth inhibition, 48 h
[1] = test system: SK-MEL-5
[2] = test system: OVCAR-5
[3] = test system: HT-29
[4] = test system: K562
[5] = test system: NCI-H522
[6] = test system: M14
[7] = test system: U-251
[8] = test system: SN12C
[9] = test system: NCI-H226
[10] = test system: A549
[11] = test system: EKVX
[12] = test system: A498
[13] = test system: SW-620
[14] = test system: SR
[15] = test system: HOP-92

Measured: GI50

O=C(CSc1nnc(Cc2ccccc2)o1)Nc1cccc([N+](=O)[O-])c1
inactive: [1] > 100 µM | [2] > 100 µM | [3] > 100 µM | [4] > 100 µM | [5] > 100 µM | [6] > 100 µM | [7] > 100 µM | [8] > 100 µM | [9] > 100 µM | [10] > 100 µM

COc1cc(OC)c(C(=O)c2cccs2)cc1N
inactive: [1] > 100 µM | [2] > 100 µM | [3] > 100 µM | [4] > 100 µM | [11] > 100 µM | [6] > 100 µM | [7] > 100 µM | [12] > 100 µM | [8] > 100 µM | [10] > 100 µM | [13] > 100 µM

CCOc1ccc(NCC(=O)N2CC(=O)Nc3ccccc32)cc1
inactive: [1] > 100 µM | [2] > 100 µM | [3] > 100 µM | [14] > 100 µM | [4] > 100 µM | [11] > 100 µM | [15] > 100 µM | [5] > 100 µM | [6] > 100 µM | [7] > 100 µM | [8] > 100 µM | [9] > 100 µM | [10] > 100 µM | [13] > 100 µM

COc1cc(NC(C)=O)c2[nH]c3c(C)cc(NC(C)=O)c(C)c3c2c1
inactive: [1] > 100 µM | [3] > 100 µM | [4] > 100 µM | [11] > 100 µM | [15] > 100 µM | [5] > 100 µM | [6] > 100 µM | [7] > 100 µM | [12] > 100 µM | [8] > 100 µM | [9] > 100 µM | [10] > 100 µM | [13] > 100 µM

C/C(CC(=O)Nc1ccc(Cl)cc1)=N\NC(=O)C[n+]1ccccc1
inactive: [1] > 100 µM | [2] > 100 µM | [3] > 100 µM | [4] > 100 µM | [11] > 100 µM | [15] > 100 µM | [5] 75 µM | [6] > 100 µM | [7] > 100 µM | [9] > 100 µM | [10] > 100 µM | [13] > 100 µM

CCOC(=O)C1(C#N)C(c2ccccc2)CC(O)(c2ccc([N+](=O)[O-])cc2)C(C(=O)c2ccc([N+](=O)[O-])cc2)C1c1ccccc1 (centres undefined)
inactive: [2] > 100 µM | [3] > 100 µM | [14] > 100 µM | [4] > 100 µM | [11] > 100 µM | [5] 34 µM | [6] > 100 µM | [7] > 100 µM | [8] > 100 µM | [9] > 100 µM | [10] > 100 µM | [13] > 100 µM

COC(=O)C(CC(C)C)NC(=O)NC12CC3CC(CC(F)(C3)C1)C2 (centres undefined)
inactive: [1] > 100 µM | [2] > 100 µM | [3] > 100 µM | [4] > 100 µM | [11] > 100 µM | [15] 50.6 µM | [5] > 100 µM | [6] > 100 µM | [7] > 100 µM | [12] > 100 µM | [10] > 100 µM | [13] > 100 µM

Cc1c(C)c2cc3c(=O)c(CCl)coc3c(C)c2oc1=O
inactive: [1] > 100 µM | [2] > 100 µM | [4] > 100 µM | [11] > 100 µM | [5] 95.3 µM | [6] > 100 µM | [7] > 100 µM | [12] > 100 µM | [8] > 100 µM | [9] > 100 µM | [10] > 100 µM | [13] > 100 µM

CC(=O)CCC#Cc1ccccc1C(=O)C(C)=[N+]=[N-]
inactive: [1] 15.4 µM | [2] > 100 µM | [3] 44.8 µM | [4] 20.8 µM | [11] 81.8 µM | [15] 38 µM | [6] 20.3 µM | [7] 36.8 µM | [12] 53.6 µM | [8] 49.1 µM | [9] 48.5 µM | [10] 41 µM | [13] 52.7 µM

CC(C)=CCc1c(O)cc(O)c2c1OC(c1ccc(O)cc1)C(O)C2=O (centres undefined)
inactive: [1] 22.3 µM | [2] 28.2 µM | [3] 20.9 µM | [4] 20.2 µM | [11] 25.6 µM | [15] 18.3 µM | [5] 18.9 µM | [6] 22.6 µM | [7] 25.2 µM | [12] 42.2 µM | [8] 27.7 µM | [9] 21.9 µM | [10] 26.1 µM | [13] 36.4 µM

COC(=O)C(Cc1nc2ccc(Cl)cc2nc1O)/C(=N/O)C(=O)Nc1cccc(Cl)c1C (centres undefined)
inactive: [1] > 100 µM | [2] > 100 µM | [3] > 100 µM | [14] > 100 µM | [4] > 100 µM | [11] 10.1 µM | [5] > 100 µM | [6] > 100 µM | [7] > 100 µM | [12] > 100 µM | [8] > 100 µM | [9] > 100 µM | [10] > 100 µM | [13] > 100 µM

CCOc1cccc2sc(N)nc12
inactive: [1] > 100 µM | [2] > 100 µM | [3] > 100 µM | [4] > 100 µM | [11] 49 µM | [15] > 100 µM | [5] > 100 µM | [6] > 100 µM | [7] > 100 µM | [12] > 100 µM | [8] > 100 µM | [9] > 100 µM | [10] > 100 µM | [13] > 100 µM

Cc1ccccc1NC(=O)C(=O)CC(=O)c1ccc([N+](=O)[O-])cc1
inactive: [2] > 100 µM | [3] > 100 µM | [11] > 100 µM | [15] > 100 µM | [6] > 100 µM | [7] > 100 µM | [8] > 100 µM | [9] > 100 µM | [10] > 100 µM | [13] > 100 µM

CCOC(=O)CC1=CSC2=NCCN12
inactive: [1] > 100 µM | [2] > 100 µM | [3] > 100 µM | [4] > 100 µM | [11] > 100 µM | [15] > 100 µM | [5] > 100 µM | [6] > 100 µM | [7] > 100 µM | [12] > 100 µM | [8] > 100 µM | [9] > 100 µM | [10] > 100 µM | [13] > 100 µM

COc1cc(C(=O)C/C(CCC(=O)Nc2ccc(Cl)cc2Cl)=N/NC(=O)C(N)=O)ccc1O
inactive: [1] > 100 µM | [2] > 100 µM | [3] > 100 µM | [4] 76.2 µM | [11] > 100 µM | [15] > 100 µM | [5] > 100 µM | [6] > 100 µM | [7] > 100 µM | [12] > 100 µM | [8] > 100 µM | [9] > 100 µM | [10] > 100 µM | [13] > 100 µM
